# Source: patent publication US20250136606A1, “MODULATORS OF TRPML, THEIR COMPOSITIONS AND METHODS OF USE” (Caraway Therapeutics, Inc., priority 2021, published 2025)
# Legend:
# Format in all cases: cell-based
# Conditions in all cases: fluorescent calcium assay
# TRPML3 = target: T1, TRPML3 (Homo sapiens, UniProt Q8TDD5); assay: Fluorescent TRPML3 assay (performed as for TRPML1, substituting the TRPML3 subtype)
# T1 construct: expressed in transfected cells
# T1 sequence (Q8TDD5 1-553): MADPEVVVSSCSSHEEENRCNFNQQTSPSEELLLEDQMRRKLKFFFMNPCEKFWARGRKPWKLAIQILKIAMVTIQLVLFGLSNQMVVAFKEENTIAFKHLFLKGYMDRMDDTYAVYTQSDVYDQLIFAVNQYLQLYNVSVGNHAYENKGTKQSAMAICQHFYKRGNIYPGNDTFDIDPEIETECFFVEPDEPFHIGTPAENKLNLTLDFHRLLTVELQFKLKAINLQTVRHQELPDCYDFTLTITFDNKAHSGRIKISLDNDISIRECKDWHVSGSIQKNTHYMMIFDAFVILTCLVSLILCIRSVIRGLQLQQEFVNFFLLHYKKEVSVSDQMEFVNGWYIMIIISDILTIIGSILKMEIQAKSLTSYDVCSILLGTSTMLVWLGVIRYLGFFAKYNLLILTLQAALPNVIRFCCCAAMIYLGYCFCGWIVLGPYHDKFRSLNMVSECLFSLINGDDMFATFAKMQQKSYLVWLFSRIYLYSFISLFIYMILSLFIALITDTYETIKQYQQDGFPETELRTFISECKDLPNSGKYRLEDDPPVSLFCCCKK
# Summary of the method: (§1)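 Doxycycline-induced (0.5 ug/mL) HEK-293 Trex cells stably expressing surface-directed mutant channel were loaded with 1 micromolar Fluo4-AM, resuspended in Ringer's with 10 mM calcium and added to compound plates. Fluorescence (ex 480, em 540 nm) gave percent activity versus on-plate controls; EC50 by non-linear regression.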
# TRPML1 = TRPML1 (Homo sapiens, UniProt Q9GZU1); assay: Fluorescent TRPML1 assay (Fluo4-AM calcium fluorescence in doxycycline-induced HEK-293 Trex cells)
# Summary of the method: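 hTRPML1 (mutated for cell-surface expression) in HEK-293 Trex, dox 0.5 ug/mL o/n; Fluo4-AM 1 uM ~60 min, then ~60 min de-esterification, dark; modified Ringer's + 10 mM Ca. Cmpds 20 uM–6 nM final, half-log, n=3. Ex480/Em540; % activity vs ctrls; EC50 by nonlinear regression.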
# TRPML2 = target: T2, TRPML2 (Homo sapiens, UniProt Q8IZK6); assay: Fluorescent TRPML2 assay (performed as for TRPML1, substituting the TRPML2 subtype)
# T2 construct: expressed in transfected cells
# T2 sequence (Q8IZK6 1-566): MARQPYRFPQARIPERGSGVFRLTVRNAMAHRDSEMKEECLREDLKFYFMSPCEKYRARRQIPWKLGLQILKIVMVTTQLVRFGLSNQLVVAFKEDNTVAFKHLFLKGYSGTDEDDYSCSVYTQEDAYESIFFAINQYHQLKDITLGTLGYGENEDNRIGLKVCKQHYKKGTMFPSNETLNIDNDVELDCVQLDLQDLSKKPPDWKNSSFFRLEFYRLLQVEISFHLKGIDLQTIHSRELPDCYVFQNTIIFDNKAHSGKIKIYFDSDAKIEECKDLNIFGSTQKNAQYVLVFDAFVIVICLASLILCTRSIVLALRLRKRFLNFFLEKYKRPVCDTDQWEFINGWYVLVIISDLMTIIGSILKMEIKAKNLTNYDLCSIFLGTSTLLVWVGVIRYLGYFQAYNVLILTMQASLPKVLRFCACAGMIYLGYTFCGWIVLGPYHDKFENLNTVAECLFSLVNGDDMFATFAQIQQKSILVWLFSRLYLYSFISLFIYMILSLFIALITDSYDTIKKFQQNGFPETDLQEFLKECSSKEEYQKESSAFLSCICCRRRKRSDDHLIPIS
# Summary of the method: as §1
# TRPML1, sequence (Q9GZU1 whole entry L15A/L16A/L577A/L578A, form open): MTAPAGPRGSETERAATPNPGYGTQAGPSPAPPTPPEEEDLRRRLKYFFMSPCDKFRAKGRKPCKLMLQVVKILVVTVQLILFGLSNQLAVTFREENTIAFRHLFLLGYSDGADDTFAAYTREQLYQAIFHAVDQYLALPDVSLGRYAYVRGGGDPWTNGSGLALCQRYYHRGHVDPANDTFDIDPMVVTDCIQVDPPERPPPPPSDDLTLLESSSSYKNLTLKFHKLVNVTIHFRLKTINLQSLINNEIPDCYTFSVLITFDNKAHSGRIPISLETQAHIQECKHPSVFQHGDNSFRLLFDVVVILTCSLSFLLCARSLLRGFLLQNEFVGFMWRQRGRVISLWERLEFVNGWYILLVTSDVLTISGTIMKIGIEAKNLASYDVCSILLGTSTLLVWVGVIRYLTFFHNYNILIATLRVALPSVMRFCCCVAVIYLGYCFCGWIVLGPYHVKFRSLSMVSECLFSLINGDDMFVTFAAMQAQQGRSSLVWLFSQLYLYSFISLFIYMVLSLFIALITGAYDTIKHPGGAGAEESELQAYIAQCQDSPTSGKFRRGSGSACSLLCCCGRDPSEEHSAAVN
Compound,EC50 (TRPML3),EC50 (TRPML1),EC50 (TRPML2)
"COC(=O)c1nccnc1-c1cn(-c2cccc(Cl)c2)c2ncnc(N3CCN(C(=O)OC(C)(C)C)C[C@@H]3C)c12 [Compound 275, methyl (S)-3-(4-(4-(tert-butoxycarbonyl)-2-methylpiperazin-1-yl)-7-(3-chlorophenyl)-7H-pyrrolo[2,3-d]pyrimidin-5-yl)pyrazine-2-carboxylate]",500 to 2000 nM,> 2000 nM,> 2000 nM
"COc1cc(-n2cc(C3CC3)c3c(N4CCN(C(=O)OC(C)(C)C)C[C@@H]4C)ncnc32)cc(F)c1F [Compound 301, tert-butyl (S)-4-(5-cyclopropyl-7-(3,4-difluoro-5-methoxyphenyl)-7H-pyrrolo[2,3-d]pyrimidin-4-yl)-3-methylpiperazine-1-carboxylate]",100 to 500 nM,100 to 500 nM,500 to 2000 nM
"C[C@H]1CN(C(=O)OC(C)(C)C)CCN1c1ncnc2c1c(C1CC1)cn2-c1cc(C#N)cc(OC(F)(F)F)c1 [Compound 303, tert-butyl (S)-4-(7-(3-cyano-5-(trifluoromethoxy)phenyl)-5-cyclopropyl-7H-pyrrolo[2,3-d]pyrimidin-4-yl)-3-methylpiperazine-1-carboxylate]",100 to 500 nM,100 to 500 nM,500 to 2000 nM
"Cc1nccnc1-c1cn(-c2cccc(OC(F)(F)F)c2)c2ncnc(N3CCN(C(=O)OC(C)(C)C)C[C@@H]3C)c12 [Compound 304, tert-butyl (S)-3-methyl-4-(5-(3-methylpyrazin-2-yl)-7-(3-(trifluoromethoxy)phenyl)-7H-pyrrolo[2,3-d]pyrimidin-4-yl)piperazine-1-carboxylate]",100 to 500 nM,500 to 2000 nM,500 to 2000 nM
"Cc1nccnc1-c1cn(-c2cc(F)c(F)c(F)c2)c2ncnc(N3CCN(C(=O)OC(C)(C)C)C[C@@H]3C)c12 [Compound 305, tert-butyl (S)-3-methyl-4-(5-(3-methylpyrazin-2-yl)-7-(3,4,5-trifluorophenyl)-7H-pyrrolo[2,3-d]pyrimidin-4-yl)piperazine-1-carboxylate]",100 to 500 nM,500 to 2000 nM,> 2000 nM
"Cc1ccc(Cl)cc1-n1cc(N2CCCC2)c2c(N3CCN(C(=O)OC(C)(C)C)C[C@@H]3C)ncnc21 [Compound 306, tert-butyl (S)-4-(7-(5-chloro-2-methylphenyl)-5-(pyrrolidin-1-yl)-7H-pyrrolo[2,3-d]pyrimidin-4-yl)-3-methylpiperazine-1-carboxylate]",100 to 500 nM,500 to 2000 nM,500 to 2000 nM
"C[C@H]1CN(C(=O)OC(C)(C)C)CCN1c1ncnc2c1c(N1CCC[C@@H]1CO)cn2-c1cc(F)cc(F)c1 [Compound 307, tert-butyl (S)-4-(7-(3,5-difluorophenyl)-5-((R)-2-(hydroxymethyl)pyrrolidin-1-yl)-7H-pyrrolo[2,3-d]pyrimidin-4-yl)-3-methylpiperazine-1-carboxylate]",< 100 nM,500 to 2000 nM,500 to 2000 nM
"C[C@H]1CN(C(=O)OC(C)(C)C)CCN1c1ncnc2c1c(N1CCC(F)(F)C1)cn2-c1cccc(Cl)c1 [Compound 308, tert-butyl (S)-4-(7-(3-chlorophenyl)-5-(3,3-difluoropyrrolidin-1-yl)-7H-pyrrolo[2,3-d]pyrimidin-4-yl)-3-methylpiperazine-1-carboxylate]",< 100 nM,< 100 nM,< 100 nM
"C[C@H]1CN(C(=O)OC(C)(C)C)CCN1c1ncnc2c1c(N1CCCCC1)cn2-c1cccc(Cl)c1 [Compound 310, tert-butyl (S)-4-(7-(3-chlorophenyl)-5-(piperidin-1-yl)-7H-pyrrolo[2,3-d]pyrimidin-4-yl)-3-methylpiperazine-1-carboxylate]",< 100 nM,< 100 nM,< 100 nM
"COc1cc(-n2cc(C3CC3)c3c(N4CCN(C(=O)OC(C)(C)C)C[C@@H]4C)ncnc32)ccc1F [Compound 317, tert-butyl (S)-4-(5-cyclopropyl-7-(4-fluoro-3-methoxyphenyl)-7H-pyrrolo[2,3-d]pyrimidin-4-yl)-3-methylpiperazine-1-carboxylate]",100 to 500 nM,500 to 2000 nM,> 2000 nM
"C[C@H]1CN(C(=O)OC(C)(C)C(F)(F)F)CCN1c1ncnc2c1c(C1CC1)cn2-c1cc(C#N)ccn1 [Compound 318, 1,1,1-trifluoro-2-methylpropan-2-yl (S)-4-(7-(4-cyanopyridin-2-yl)-5-cyclopropyl-7H-pyrrolo[2,3-d]pyrimidin-4-yl)-3-methylpiperazine-1-carboxylate]",100 to 500 nM,< 100 nM,500 to 2000 nM

# Second part, the molecule after the results:
EC50 (TRPML3),EC50 (TRPML1),EC50 (TRPML2),Compound
100 to 500 nM,100 to 500 nM,500 to 2000 nM,"C[C@H]1CN(C(=O)OC(C)(C)C)CCN1c1ncnc2c1c(-c1nccnc1C#N)cn2-c1cccc(Cl)c1 [Compound 274, tert-butyl (S)-4-(7-(3-chlorophenyl)-5-(3-cyanopyrazin-2-yl)-7H-pyrrolo[2,3-d]pyrimidin-4-yl)-3-methylpiperazine-1-carboxylate]"
500 to 2000 nM,500 to 2000 nM,> 2000 nM,"C[C@@H]1CN(c2ncnc3c2c(N2CCC[C@H]2C)cn3-c2cccc(Cl)c2)CCN1C(=O)OC(C)(C)C [Compound 299, tert-butyl (R)-4-(7-(3-chlorophenyl)-5-((R)-2-methylpyrrolidin-1-yl)-7H-pyrrolo[2,3-d]pyrimidin-4-yl)-2-methylpiperazine-1-carboxylate]"
< 100 nM,< 100 nM,500 to 2000 nM,"C[C@@H]1CN(c2ncnc3c2c(N2CCC(F)(F)C2)cn3-c2cccc(Cl)c2)CCN1C(=O)OC(C)(C)C [Compound 300, tert-butyl (R)-4-(7-(3-chlorophenyl)-5-(3,3-difluoropyrrolidin-1-yl)-7H-pyrrolo[2,3-d]pyrimidin-4-yl)-2-methylpiperazine-1-carboxylate]"
100 to 500 nM,500 to 2000 nM,> 2000 nM,"COc1cc(C#N)cc(-n2cc(C3CC3)c3c(N4CCN(C(=O)OC(C)(C)C)C[C@@H]4C)ncnc32)c1 [Compound 302, tert-butyl (S)-4-(7-(3-cyano-5-methoxyphenyl)-5-cyclopropyl-7H-pyrrolo[2,3-d]pyrimidin-4-yl)-3-methylpiperazine-1-carboxylate]"
500 to 2000 nM,> 2000 nM,> 2000 nM,"C[C@H]1CN(C(=O)OC(C)(C)C)CCN1c1ncnc2c1c(N1CCCC1=O)cn2-c1cccc(Cl)c1 [Compound 309, tert-butyl (S)-4-(7-(3-chlorophenyl)-5-(2-oxopyrrolidin-1-yl)-7H-pyrrolo[2,3-d]pyrimidin-4-yl)-3-methylpiperazine-1-carboxylate]"
< 100 nM,< 100 nM,< 100 nM,"C[C@@H]1CN(c2ncnc3c2c(N2CCCC2)cn3-c2cccc(OC(F)(F)F)c2)CCN1C(=O)OC(C)(C)C [Compound 311, tert-butyl (R)-2-methyl-4-(5-(pyrrolidin-1-yl)-7-(3-(trifluoromethoxy)phenyl)-7H-pyrrolo[2,3-d]pyrimidin-4-yl)piperazine-1-carboxylate]"
< 100 nM,100 to 500 nM,500 to 2000 nM,"C[C@H]1CN(C(=O)OC(C)(C)C)CCN1c1ncnc2c1c(N1CCC[C@@H]1CO)cn2-c1cccc(Cl)c1 [Compound 312, tert-butyl (S)-4-(7-(3-chlorophenyl)-5-((R)-2-(hydroxymethyl)pyrrolidin-1-yl)-7H-pyrrolo[2,3-d]pyrimidin-4-yl)-3-methylpiperazine-1-carboxylate]"
500 to 2000 nM,> 2000 nM,> 2000 nM,"C[C@@H]1CN(c2ncnc3c2c(N2CCCC2=O)cn3-c2cc(F)c(F)c(F)c2)CCN1C(=O)OC(C)(C)C [Compound 313, tert-butyl (R)-2-methyl-4-(5-(2-oxopyrrolidin-1-yl)-7-(3,4,5-trifluorophenyl)-7H-pyrrolo[2,3-d]pyrimidin-4-yl)piperazine-1-carboxylate]"
